We go through 17 molecules from patent US4202898A, “Method of treating anxiety and depression” (priority 1978, dated 1980).

The nature of series [1]: 4 plates test (percentage of desinibition observed in the mouse). The format is in vivo. The note with it: for change in vivo at 10 mg/kg / change in vivo at 30 mg/kg / change in vivo at 1 mg/kg / change in vivo at 3 mg/kg: po, 1 h; for change in vivo at 10 mg/kg: read-out: percentage of desinibition (ACTIVITY, 10 mg/kg p.o.); for change in vivo at 30 mg/kg: 30 mg/kg p.o.; for change in vivo at 1 mg/kg: read-out: percentage of desinibition (ACTIVITY, 1 mg/kg p.o.); for change in vivo at 3 mg/kg: read-out: percentage of desinibition (ACTIVITY, 3 mg/kg p.o.). As for the experimental part: This activity has been tested by the 4 plates test (Aron C. These de Medecine--Paris 1970; Boissier JR--Simon P. and Aron C., A new method for rapid screening of minor tranquillizers in mice, Europ. J. Pharmacol. 1968, 4, 145-151). The substances are administered in several doses (0.3, 1.0, 3.0, 10 and 30 mg/kg) per os, 60 minutes before the test.
The results, which give the percentage of desinibition observed in the mouse, are shown as Examples III-XVIII. At the same doses, the greater the percentage the higher the activity of the piperazine. The results for two known anxiolytic agents are set forth in Examples XIX and XX.

A short description of series [2]: LD 50 toxicity, oral. The settings on record: in vivo, p.o., tested as hydrochlorides.
Setting [3] is: mouse, 10 mg/kg p.o., 60 minutes before the test.
The mark [4] stands for this setting: mouse, 60 minutes before the test.
The mark [5] stands for this setting: mouse, 1 mg/kg p.o., 60 minutes before the test.
Setting [6] is: mouse, 3 mg/kg p.o., 60 minutes before the test.

Read-outs that look alike come from different tables or passages of the source.

`OCCN1CCN(c2cccc(C(F)(F)F)c2)CC1` [Example 4]: in series [1] (setting [3]), the change in vivo at 10 mg/kg is 174%. This molecule displayed a change in vivo at 30 mg/kg in series [1] (setting [4]) of 226%. In series [2], the median lethal dose (LD50) (commonly the dose expected to kill half of the subjects tested) was found to be 740 mg/kg.

Take `COc1ccc(Cl)cc1C(=O)OCCN1CCN(c2cccc(C(F)(F)F)c2)CC1` [Example 12]: in series [1] (setting [3]), the change in vivo at 10 mg/kg was 65%. The molecule also gave an LD50 in series [2] of 1800 mg/kg.

Consider `CC(=O)OCCN1CCN(c2cccc(SC(F)(F)F)c2)CC1` [Example 8, (4-m-trifluoromethylthiophenyl-piperazino)-ethyl acetate], for which, in series [1] (setting [4]), the “percentage of desinibition (ACTIVITY, 0.3 mg/kg p.o.)” value is reported as “+27%” and the change in vivo at 30 mg/kg stood at 154%. Also, the change in vivo at 1 mg/kg in series [1] (setting [5]) worked out at 88%. The change in vivo at 3 mg/kg in series [1] (setting [6]) was found to be 191%. Besides, in series [1] (setting [3]), the change in vivo at 10 mg/kg worked out at 312%. For the same molecule, the LD50 in series [2] is 510 mg/kg.

For the molecule `OCCN1CCN(c2cccc(Cl)c2)CC1` [Example 6], the change in vivo at 1 mg/kg in series [1] (setting [5]) stood at 23%. Also, the change in vivo at 3 mg/kg in series [1] (setting [6]) stood at 50%. For the same molecule, the change in vivo at 10 mg/kg in series [1] (setting [3]) stood at 54%. In series [2], this molecule had an LD50 of 750 mg/kg.

Turning to `CC(C)(C)C(=O)OCCN1CCN(c2cccc(SC(F)(F)F)c2)CC1` [Example 21], the change in vivo at 1 mg/kg in series [1] (setting [5]) was 73%. The change in vivo at 3 mg/kg in series [1] (setting [6]) amounted to 122%. The change in vivo at 10 mg/kg in series [1] (setting [3]) was found to be 196%.

With `OCCN1CCN(c2ccccc2)CC1` [Example 7], the change in vivo at 1 mg/kg in series [1] (setting [5]) amounted to 39%. Besides, the change in vivo at 3 mg/kg in series [1] (setting [6]) is 2%. This molecule also showed an LD50 in series [2] of 525 mg/kg.

`OCCN1CCN(c2cccc(SC(F)(F)F)c2)CC1` [Example 3, [4-(3'-trifluoromethylthiophenyl)-piperazino]-ethanol]: in series [1] (setting [4]), the “percentage of desinibition (ACTIVITY, 0.3 mg/kg p.o.)” value was “+118%” and the change in vivo at 30 mg/kg was 248%. Besides, the change in vivo at 1 mg/kg in series [1] (setting [5]) turned out to be 190%. For the same molecule, the change in vivo at 3 mg/kg in series [1] (setting [6]) is 230%. Moreover, the change in vivo at 10 mg/kg in series [1] (setting [3]) worked out at 335%. In series [2], this molecule registered a median lethal dose (LD50) of 500 mg/kg.

`O=C(Nc1ccccc1)OCCN1CCN(c2cccc(C(F)(F)F)c2)CC1` [Example 17]: in series [1] (setting [3]), the change in vivo at 10 mg/kg was 9%. This molecule also registered a change in vivo at 30 mg/kg in series [1] (setting [4]) of 30%.

Take `CNC1=Nc2ccc(Cl)cc2C(c2ccccc2)=[N+]([O-])C1` [chlordiazepozide, reference compound]: in series [1] (setting [5]), the change in vivo at 1 mg/kg came to 43%. Besides, the change in vivo at 3 mg/kg in series [1] (setting [6]) was found to be 86%. The change in vivo at 10 mg/kg in series [1] (setting [3]) came to 24%.

Regarding `Nc1ccccc1C(=O)OCCN1CCN(c2cccc(C(F)(F)F)c2)CC1` [Example 11], the change in vivo at 1 mg/kg in series [1] (setting [5]) turned out to be 35%. Also, the change in vivo at 3 mg/kg in series [1] (setting [6]) worked out at 63%. The change in vivo at 10 mg/kg in series [1] (setting [3]) was determined as 182%. Moreover, in series [1] (setting [4]), the change in vivo at 30 mg/kg was found to be 336%. Moreover, in series [2], the LD50 came out at 3000 mg/kg.

`CC(=O)OCCN1CCN(c2cccc(C(F)(F)F)c2)CC1` [Example 9]: the change in vivo at 1 mg/kg in series [1] (setting [5]) worked out at 24%. Moreover, in series [1] (setting [6]), the change in vivo at 3 mg/kg was 49%. The change in vivo at 10 mg/kg in series [1] (setting [3]) is 220%. Besides, the change in vivo at 30 mg/kg in series [1] (setting [4]) worked out at 156%. The median lethal dose (LD50) in series [2] amounted to 925 mg/kg.

`OCCN1CCN(c2cccc(OC(F)(F)F)c2)CC1` [Example 5]: in series [1] (setting [5]), the change in vivo at 1 mg/kg was determined as 8%. Besides, the change in vivo at 3 mg/kg in series [1] (setting [6]) was 9%. The change in vivo at 10 mg/kg in series [1] (setting [3]) amounted to 14%. This molecule also came in with a change in vivo at 30 mg/kg in series [1] (setting [4]) of 88%. In series [2], this molecule returned an LD50 of 575 mg/kg.

As to `O=C(Nc1ccccc1)OCCN1CCN(c2cccc(SC(F)(F)F)c2)CC1` [Example 18], in series [1] (setting [4]), the “percentage of desinibition (ACTIVITY, 0.3 mg/kg p.o.)” value is “+15%” and the change in vivo at 30 mg/kg was 532%. In series [1] (setting [5]), the change in vivo at 1 mg/kg came to 23%. Moreover, in series [1] (setting [6]), the change in vivo at 3 mg/kg stood at 63%. In addition, the change in vivo at 10 mg/kg in series [1] (setting [3]) was determined as 304%.

Consider `CCCCNC(=O)OCCN1CCN(c2cccc(SC(F)(F)F)c2)CC1` [Example 15], for which the change in vivo at 1 mg/kg in series [1] (setting [5]) is 3%. Also, the change in vivo at 3 mg/kg in series [1] (setting [6]) was found to be 109%. The change in vivo at 10 mg/kg in series [1] (setting [3]) stood at 64%.

As for `CNC(=O)OCCN1CCN(c2cccc(SC(F)(F)F)c2)CC1` [Example 13], in series [1] (Mus musculus), the change in vivo at 3 mg/kg came to 49% and the change in vivo at 10 mg/kg amounted to 152%.

As to `CN(C)C(=O)OCCN1CCN(c2cccc(SC(F)(F)F)c2)CC1` [Example 14], in series [1] (Mus musculus), the change in vivo at 1 mg/kg was 2% and the change in vivo at 10 mg/kg came to 3%.

With `CCCC(C)(COC(N)=O)COC(N)=O` [meprobamate, reference compound], the change in vivo at 3 mg/kg in series [1] (setting [6]) was determined as 53%. The change in vivo at 10 mg/kg in series [1] (setting [3]) stood at 38%. In series [1] (setting [4]), the change in vivo at 30 mg/kg came to 142%.
